{"source": "ChEMBL document CHEMBL5233273", "about": "“An overview of hydroxypyranone and hydroxypyridinone as privileged scaffolds for novel drug discovery” (Eur J Med Chem, 2021)", "key": {"[1]": {"assay": "Neuroprotective activity in CGC cells assessed as inhibition of lipid peroxidation", "type": "functional, cell-based", "conditions": "cerebellar granule neurone"}, "[2]": {"system": "Mycolicibacterium smegmatis", "assay": "Antimycobacterial activity against Mycobacterium smegmatis", "type": "functional"}, "[3]": {"target": "T1, Tyrosinase (Agaricus bisporus, UniProt O42713)", "T1 sequence (O42713 whole entry)": "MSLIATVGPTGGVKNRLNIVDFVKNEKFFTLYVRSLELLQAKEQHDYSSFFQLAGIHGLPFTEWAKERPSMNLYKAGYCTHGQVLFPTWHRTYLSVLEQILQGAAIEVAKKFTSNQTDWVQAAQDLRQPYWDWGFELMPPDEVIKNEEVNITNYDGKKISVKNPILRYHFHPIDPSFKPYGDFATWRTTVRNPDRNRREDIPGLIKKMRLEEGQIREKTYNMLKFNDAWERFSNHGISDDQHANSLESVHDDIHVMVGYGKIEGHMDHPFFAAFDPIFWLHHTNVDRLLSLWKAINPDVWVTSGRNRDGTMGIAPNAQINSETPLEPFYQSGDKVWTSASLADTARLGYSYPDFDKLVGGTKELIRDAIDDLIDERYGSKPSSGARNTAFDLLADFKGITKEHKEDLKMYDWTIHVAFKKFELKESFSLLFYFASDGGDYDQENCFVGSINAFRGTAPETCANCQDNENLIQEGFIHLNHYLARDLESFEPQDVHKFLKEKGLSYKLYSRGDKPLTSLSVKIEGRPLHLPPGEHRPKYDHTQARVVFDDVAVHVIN", "assay": "Inhibition of mushroom tyrosinase"}, "[4]": {"system": "Candida albicans", "assay": "Antifungal activity against Candida albicans ATCC 90028", "type": "functional"}, "[5]": {"system": "Escherichia coli", "assay": "Antibacterial activity against Escherichia coli", "type": "functional"}, "[6]": {"system": "Staphylococcus aureus", "assay": "Antibacterial activity against Staphylococcus aureus", "type": "functional"}, "[7]": {"system": "Pseudomonas aeruginosa", "assay": "Antibacterial activity against Pseudomonas aeruginosa", "type": "functional"}, "[8]": {"system": "Bacillus subtilis", "assay": "Antibacterial activity against Bacillus subtilis", "type": "functional"}, "[9]": {"system": "B16-F10", "assay": "Inhibition of tyrosinase in mouse B16-F10 cells assessed as inhibition of melanin production at 5 ug relative to control", "type": "cell-based", "conditions": "dose 5.0 µg"}, "[10]": {"system": "Mycobacterium tuberculosis", "assay": "Antitubercular activity against Mycobacterium tuberculosis H37Rv ATCC 27294", "type": "functional"}, "[11]": {"system": "Mycobacterium avium", "assay": "Antitubercular activity against Mycobacterium avium ATCC 15769", "type": "functional"}, "[12]": {"system": "RAW264.7", "assay": "Antiinflammatory activity in mouse RAW264.7 assessed as reduction in LPS-induced PGE2 production", "type": "functional, cell-based"}, "[13]": {"system": "Hepatitis C virus", "assay": "Antiviral activity against HCV", "type": "functional, organism-based, Hepacivirus hominis"}, "[14]": {"system": "B16-F10", "assay": "Inhibition of tyrosinase in mouse B16-F10 cells assessed as inhibition of melanin production at 10 ug/ml relative to control", "type": "cell-based", "conditions": "dose 10.0 µg/ml"}, "[15]": {"target": "T2, Tyrosinase (Agaricus bisporus) (UniProt O42713)", "T2 sequence (whole entry)": "T1 sequence (O42713 whole entry)", "assay": "Potency index, ratio of kojic acid IC50 to test compound IC50 for inhibition of mushroom tyrosinase"}, "[16]": {"target": "DNA gyrase (Escherichia coli, UniProt P0AES4+P0AES6)", "assay": "Inhibition of Escherichia coli DNA gyrase", "type": "protein-complex assay"}, "[17]": {"assay": "Inhibition of HIV-1 integrase", "design": "species or system Human immunodeficiency virus 1"}, "[18]": {"system": "HepG2", "assay": "Cytotoxicity against human HepG2 cells", "type": "functional, cell-based"}, "[19]": {"system": "Staphylococcus aureus", "assay": "Antibacterial activity against Staphylococcus aureus assessed as zone of inhibition", "type": "functional"}}, "data": [{"smiles": "Cc1c(O)c(=O)ccn1CCSc1cc(C(C)(C)C)c(O)c(C(C)(C)C)c1", "values": [{"measurement": "IC50", "setting": "[1]", "value": 400, "unit": "nM"}]}, {"smiles": "Cc1cc(=O)c(O)c(CN2CCC(C)CC2)o1", "values": [{"measurement": "MIC", "setting": "[2]", "value": 8, "unit": "µg/mL"}]}, {"smiles": "Cc1cc(=O)c(O)c(CN2CCCCC2C)o1", "note": "(stereo not drawn)", "values": [{"measurement": "MIC", "setting": "[2]", "value": 8, "unit": "µg/mL"}]}, {"smiles": "O=c1cc(Cn2cc(COc3cccc(F)c3)nn2)occ1O", "values": [{"measurement": "IC50", "setting": "[3]", "value": 60, "unit": "nM"}]}, {"smiles": "CCCC1CCN(Cc2oc(C)cc(=O)c2O)CC1", "values": [{"measurement": "MIC", "setting": "[2]", "value": 8, "unit": "µg/mL"}]}, {"smiles": "Cc1cc(=O)c(O)c(CN2CC(C)CC(C)C2)o1", "note": "(stereo not drawn)", "values": [{"measurement": "MIC", "setting": "[2]", "value": 8, "unit": "µg/mL"}]}, {"smiles": "CCCC1CCCCN1Cc1oc(C)cc(=O)c1O", "note": "(stereo not drawn)", "values": [{"measurement": "MIC", "setting": "[2]", "value": 8, "unit": "µg/mL"}]}, {"smiles": "Cc1cc(=O)c(O)c(CN2CCCCC2)o1", "values": [{"measurement": "MIC", "setting": "[2]", "value": 8, "unit": "µg/mL"}]}, {"smiles": "Cc1cc(=O)c(O)c(CN2CCN(c3ccccc3Cl)CC2)o1", "values": [{"measurement": "MIC", "setting": "[4]", "value": 64, "unit": "µg/mL"}]}, {"smiles": "Cc1cc(=O)c(O)c(CN2CCN(c3ccc(F)cc3)CC2)o1", "values": [{"measurement": "MIC", "setting": "[4]", "value": 64, "unit": "µg/mL"}]}, {"smiles": "Cc1cc(=O)c(O)c(CN2CCC(c3ccccc3)CC2)o1", "values": [{"measurement": "MIC", "setting": "[2]", "value": 8, "unit": "µg/mL"}]}, {"smiles": "CCCC(=O)NC(CCCNC(=O)c1c(O)c(=O)ccn1CCO)(CCCNC(=O)c1c(O)c(=O)ccn1CCO)CCCNC(=O)c1c(O)c(=O)ccn1CCO", "values": [{"measurement": "MIC", "setting": "[5]", "value": 8, "unit": "µg/mL"}, {"measurement": "MIC", "setting": "[6]", "value": 8, "unit": "µg/mL"}, {"measurement": "MIC", "setting": "[7]", "value": 16, "unit": "µg/mL"}, {"measurement": "MIC", "setting": "[8]", "value": 8, "unit": "µg/mL"}]}, {"smiles": "O=C(OCc1cc(=O)c(O)co1)c1ccc2c(c1)OCO2", "values": [{"measurement": "IC50", "setting": "[3]", "value": 1520, "unit": "nM"}]}, {"smiles": "Cc1cc(=O)c(O)c(CN2CCN(Cc3ccc4c(c3)OCO4)CC2)o1", "values": [{"measurement": "MIC", "setting": "[4]", "value": 64, "unit": "µg/mL"}]}, {"smiles": "O=c1cc(/C=C/c2cc(=O)c(O)co2)occ1O", "values": [{"measurement": "inhibition", "setting": "[9]", "value": 19.5, "unit": "%"}]}, {"smiles": "O=C(C1CCCCC1)N1CCN(Cc2oc(CCl)cc(=O)c2O)CC1", "values": [{"measurement": "MIC", "setting": "[10]", "value": 4, "unit": "µg/mL"}, {"measurement": "MIC", "setting": "[11]", "value": 4, "unit": "µg/mL"}]}, {"smiles": "Cn1cc(O)c(=O)cc1C(=O)Nc1ccccc1", "values": [{"measurement": "MIC", "setting": "[6]", "value": 16, "unit": "µg/mL"}]}, {"smiles": "CCCC(=O)NC(CCCNC(=O)c1c(O)c(=O)ccn1C)(CCCNC(=O)c1c(O)c(=O)ccn1C)CCCNC(=O)c1c(O)c(=O)ccn1C", "values": [{"measurement": "MIC", "setting": "[5]", "value": 8, "unit": "µg/mL"}, {"measurement": "MIC", "setting": "[6]", "value": 8, "unit": "µg/mL"}, {"measurement": "MIC", "setting": "[7]", "value": 16, "unit": "µg/mL"}, {"measurement": "MIC", "setting": "[8]", "value": 8, "unit": "µg/mL"}]}, {"smiles": "O=c1cc(/C=C/c2ccc(O)c(O)c2)occ1O", "values": [{"measurement": "IC50", "setting": "[12]", "value": 10300, "unit": "nM"}]}, {"smiles": "O=C(OCc1cc(=O)c(O)co1)c1ccc2ccccc2c1", "values": [{"measurement": "EC50", "setting": "[13]", "value": 2740, "unit": "nM"}]}, {"smiles": "Nn1c(SCc2cc(=O)c(O)co2)nnc1-c1ccc(Cl)cc1", "values": [{"measurement": "IC50", "setting": "[3]", "value": 4500, "unit": "nM"}]}, {"smiles": "Cc1cc(=O)c(O)c(CN2CCCC(CO)C2)o1", "note": "(stereo not drawn)", "values": [{"measurement": "MIC", "setting": "[2]", "value": 8, "unit": "µg/mL"}]}, {"smiles": "O=c1cc(Cn2cc(COc3ccc(Br)cc3)nn2)occ1O", "values": [{"measurement": "IC50", "setting": "[3]", "value": 60, "unit": "nM"}]}, {"smiles": "O=C(/C=C/c1cc(=O)c(O)co1)OCCCOCCCOC(=O)/C=C/c1cc(=O)c(O)co1", "values": [{"measurement": "inhibition", "setting": "[14]", "value": 22.4, "unit": "%"}]}, {"smiles": "COc1ccc(OCc2cn(Cc3cc(=O)c(O)co3)nn2)cc1", "values": [{"measurement": "IC50", "setting": "[3]", "value": 60, "unit": "nM"}]}, {"smiles": "O=c1cc(Cn2cc(COc3ccc(F)cc3)nn2)occ1O", "values": [{"measurement": "IC50", "setting": "[3]", "value": 60, "unit": "nM"}]}, {"smiles": "Cc1cc(=O)c(O)c(CN2CCCC(O)C2)o1", "note": "(stereo not drawn)", "values": [{"measurement": "MIC", "setting": "[2]", "value": 8, "unit": "µg/mL"}]}, {"smiles": "Cc1cc(=O)c(O)c(CN2CCN(c3ccccc3F)CC2)o1", "values": [{"measurement": "MIC", "setting": "[4]", "value": 64, "unit": "µg/mL"}]}, {"smiles": "N#Cc1ccc(OCc2cn(Cc3cc(=O)c(O)co3)nn2)cc1", "values": [{"measurement": "IC50", "setting": "[3]", "value": 60, "unit": "nM"}]}, {"smiles": "O=c1cc(Cn2cc(COc3ccccc3)nn2)occ1O", "values": [{"measurement": "IC50", "setting": "[3]", "value": 60, "unit": "nM"}]}, {"smiles": "O=c1cc(CO)oc(CN2CCN(Cc3ccc(Cl)c(Cl)c3)CC2)c1O", "values": [{"measurement": "IC50", "setting": "[3]", "value": 86200, "unit": "nM"}, {"measurement": "Ratio IC50", "setting": "[15]", "value": 5}]}, {"smiles": "O=c1cc(Cn2cc(COc3ccc([N+](=O)[O-])cc3)nn2)occ1O", "values": [{"measurement": "IC50", "setting": "[3]", "value": 60, "unit": "nM"}]}, {"smiles": "O=c1cc(Cn2cc(COc3cccc(Cl)c3)nn2)occ1O", "values": [{"measurement": "IC50", "setting": "[3]", "value": 60, "unit": "nM"}]}, {"smiles": "Cc1cc(=O)c(O)c(CN2CCN(c3ccc([N+](=O)[O-])cc3)CC2)o1", "values": [{"measurement": "MIC", "setting": "[4]", "value": 64, "unit": "µg/mL"}]}, {"smiles": "O=C(N[C@H]1CCc2nc(NCc3cc(=O)c(O)co3)sc2C1)c1cc(Br)c(Br)[nH]1", "values": [{"measurement": "IC50", "setting": "[16]", "value": 180, "unit": "nM"}]}, {"smiles": "O=c1cc(Cn2cc(COc3ccc(CO)cc3)nn2)occ1O", "values": [{"measurement": "IC50", "setting": "[3]", "value": 60, "unit": "nM"}]}, {"smiles": "Cc1c(O)c(=O)ccn1CCc1cc(C(C)(C)C)c(O)c(C(C)(C)C)c1", "values": [{"measurement": "IC50", "setting": "[1]", "value": 300, "unit": "nM"}]}, {"smiles": "Cc1cc(=O)c(O)c(C(=O)NCc2ccc(Cl)cc2)o1", "values": [{"measurement": "EC50", "setting": "[17]", "value": 1950, "unit": "nM"}, {"measurement": "IC50", "setting": "[17]", "value": 1720, "unit": "nM"}]}, {"smiles": "O=c1cc(CN2CCCCC2)oc(CN2CCN(Cc3ccc(Br)c(F)c3)CC2)c1O", "values": [{"measurement": "IC50", "setting": "[18]", "value": 37200, "unit": "nM"}]}, {"smiles": "CC(=O)Nc1ccc(OCc2cn(Cc3cc(=O)c(O)co3)nn2)cc1", "values": [{"measurement": "IC50", "setting": "[3]", "value": 60, "unit": "nM"}]}, {"smiles": "Cc1[nH]c(C(=O)N[C@H]2CCc3nc(NC(=O)CCNC(=O)c4cc(=O)c(O)c[nH]4)sc3C2)c(Cl)c1Cl", "values": [{"measurement": "IC50", "setting": "[16]", "value": 350, "unit": "nM"}]}, {"smiles": "O=c1cc(Cn2cc(COc3cccc4ccccc34)nn2)occ1O", "values": [{"measurement": "IC50", "setting": "[3]", "value": 60, "unit": "nM"}, {"measurement": "Ratio IC50", "setting": "[15]", "value": 31}]}, {"smiles": "O=C(/C=C/c1ccc(C(=O)OCc2cc(=O)c(O)co2)cc1)c1ccccc1", "values": [{"measurement": "inhibition zone (IZ)", "setting": "[19]", "value": 8, "unit": "mm"}]}]}
